Patent publication US20070264198A1, “TUMOR NECROSIS AGENT” (Ajinomoto Co., Inc., priority 2001, published 2007)
Where a name gives a salt, the structure may show the parent alone.

Key:
[1] = test system: Sato lung carcinoma (SLC); assay: Anti-tumor effect against tumor grown in the transparent chamber; type: in vivo, rat; conditions: 10 mg/kg, tail vein, Donryu rats; state maintained for 48 hours after treatment
Description: (§1) Donryu rats (Crj-Donryu; supplied by Charles River Japan, Inc.), male.
(§2) Rat lung carcinoma, Sato lung carcinoma (SLC)
(§3) MTPVS powder was dissolved in physiological saline to a final concentration of 10 mg/ml. The solution (10 mg/kg) was administered through the tail vein of rats. Pentobarbital salt (Nembutal; manufactured by Abbott Laboratories) and enflurane (Ethrane; manufactured by Abbott Laboratories) was used as an anesthesia. Pentobarbital was intramuscularly administered at a dose of 25 mg/kg, 10 minutes prior to the experiment, and a suitable amount thereof was additionally administered at intervals of 90 minutes to maintain anesthesia during the experiment. The concentration of enflurane was maintained at 1% (1 L/min) using an anesthesia device for small animals.
The change of the tumor blood flow (hereinafter referred to as “TBF”) was observed through a biomicroscope. The dorsal skin of the rat was held with a transparent chamber under sterile conditions, and a small fragment of tumor was implanted thereon. […]
MTPVS used in a test group was administered through the tail vein by infusion pump. […] The blood vessels of tumor in the chamber were visualized with a halogen lump of 12 V and 100 W. The images of the microscope were recorded using a CCD video camera (CS-900; manufactured by Olympus Corporation), a television monitor and an S-VHS video recorder. […]

[2] = test system: arteriole supplying nutrients to the tumor / tumor blood flow (SLC tumor); assay: Biomicroscopic observation of the change of tumor microcirculation; type: in vivo, rat; conditions: intravenous 10 mg/kg
Description: as §1, §2, §3
The change of the tumor blood flow (hereinafter referred to as “TBF”) was observed through a biomicroscope. The dorsal skin of the rat was held with a transparent chamber under sterile conditions, and a small fragment of tumor was implanted thereon. After the tumor started to grow thereto, the rat was tested as described in Jpn. J. Cancer Res. 81: 279-288, 1990, which is incorporated herein by reference. The chamber comprises two titanium flames of the same shape each having a circular quartz glass window with a thickness of 300 μm. After anesthesia, the rat with the chamber was put on a stage heated at 34.5° C. in the microscope.
MTPVS used in a test group was administered through the tail vein by infusion pump. […] and histological changes of tumor were directly observed through an optical microscope (Eclipse E800; manufactured by Nikon Corporation) with an eye lens of 10× and an object glass of 2× to 20×. The blood vessels of tumor in the chamber were visualized with a halogen lump of 12 V and 100 W. The images of the microscope were recorded using a CCD video camera (CS-900; manufactured by Olympus Corporation), a television monitor and an S-VHS video recorder.
At this time, in the blood vessel on the peripheral portion of the tumor, the plasma concentration was decreased, and large quantities of red blood cells were retained. These red blood cells were hemolyzed within 2 to 3 hours after MTPVS administration to form clog.
An inserted section on the left upper portion in FIG. 4 is an enlarged view of the blood vessels on the peripheral portion of the tumor. FIGS. 1 to 4 are based on photographs taken (length of a bar: 500 μm) by using an eye lens of 10× and an object glass of 4×. The inserted section is based on a photograph taken (length of a bar: 50 μm) by using an eye lens of 10× and an object glass of 20×.

## COc1ccc(/C=C\c2cc(OC)c(OC)c(OC)c2)cc1NC(=O)[C@@H](N)CO [MTPVS, (Z)-N-[2-methoxy-5-[2-(3,4,5-trimethoxyphenyl)vinyl]phenyl]-L-serinamide hydrochloride]
[1]
  time to necrosis of SLC tumor grown in the transparent chamber: ≤ 25 h
[2]
  restoration of tumor blood flow after clog and hemolysis: no longer restored
[2]; after administration
  time at which tumor blood flow stopped almost completely: 30 min
  time to hemolysis of retained red blood cells in blood vessel on peripheral portion of the tumor (clog formation): 2 to 3 hours
[2]; normal tissues
  blood vessel structure in the normal tissues: maintained as normal
[2]; rat SLC tumor in transparent chamber
  contraction of the arteriole supplying nutrients to the tumor: markedly contracted
